Tested on: S. aureus strain ATCC 13709 (methicillin-susceptible)
Assay: Murine model for lethal bacteremic peritonitis
Format: in vivo, female Swiss-Webster mice
Details: Staphylococcus aureus, ATCC13709, sc, 72 h
Description: Groups of 5 female Swiss-Webster mice (Simonsen, Gilroy, Calif.) each are challenged by the intraperitoneal (IP) route with tenfold increments of a bacterial inoculum. This permits calculation of the mean lethal dose (LD50) and the LD100. For preliminary evaluation of a new antibiotic, mice are challenged IP with an LD100 titer of bacteria. In two equal doses administered at the time of bacterial challenge and 2 hours later, groups of 10 mice each are treated subcutaneously with two-fold increments of the test drug and an antibiotic of known efficacy in mice and humans (i.e., positive control). Mice are observed for 72 h. Those alive at 72 h are considered long term survivors. The total drug dose in mg/kg that protects 50% of mice in a group from death is termed the mean protective dose (PD50). PD50 s are similarly determined for several pathogens. The quantitative endpoints for the new drug are then compared with those obtained with reference antibiotics.
Six ten-fold dilutions of inoculum suspended in 0.5 mL of sterilized 7% hog gastric mucin (Sigma) are injected IP in groups of 5 mice each. A control group of 5 mice receive mucin alone. Mice are observed for 72 h. Those alive at 72 h are considered long term survivors. The mean lethal dose (LD50) and 100% lethal dose (LD100) are determined by the probit test.
For antibiotic efficacy studies, mice are challenged IP with bacterial titers that will afford an LD100 for the test strain. In two equal doses administered at the time of bacterial challenge and 2 hours later, groups of 10 mice each are treated by the subcutaneous route (SC) with twofold increments of the test antibiotic; another group is treated similarly with a reference antibiotic of known efficacy in animals and man. Drug doses can range from 0.01 to 512 mg/kg. If the drug is poorly soluble, Tween 20 or propylene glycol will be employed to solubilize the drug. Animals are observed for 72 h. The 50% protective dose (PD50) is calculated in mg/kg by the probit method. The PD50 is the same as the 50% effective dose (ED50) and the 50% curative dose (CD50). Samples of blood from the hearts of all animals that die and from half the mice that survive are cultured on brain-heart infusion agar. Animals that received a protective dosage of the test drug will be alive at 72 h, although they may appear moderately ill to very ill during the observation period. […] Most of these mice will die within 6 to 48 h. Those alive at 72 h will be considered long term survivors.
(Compound numbers correspond to those in MIC tables; data reported for challenge with methicillin-susceptible S. aureus strain ATCC 13709.)

Work on CN[C@H](CC(C)C)C(=O)N[C@H]1C(=O)N[C@@H](CC(N)=O)C(=O)N[C@H]2C(=O)N[C@H]3C(=O)N[C@H](C(=O)N[C@H](C(=O)O)c4cc(O)cc(O)c4-c4cc3ccc4O)[C@H](O)c3ccc(c(Cl)c3)Oc3cc2cc(c3O[C@@H]2O[C@H](CO)[C@@H](O)[C@H](O)[C@H]2O[C@H]2C[C@](C)(N)[C@H](O)[C@H](C)O2)Oc2ccc(cc2Cl)[C@H]1O [Vancomycin, vancomycin, reference compound] yielded an ED50 of 1.94 mg/kg, a responders at 0.625 mg/kg (read-out: Survivors) of 20% and a responders at 1.25 mg/kg (read-out: Survivors) of 20%. For the same compound, the responders at 2.5 mg/kg (read-out: Survivors) was 40%, the responders at 5 mg/kg (read-out: Survivors) was 100% and the responders at 10 mg/kg (read-out: Survivors) was 100%.

— patent US6087355A, “Cephalosporin antibiotics” (Microcide Pharmaceuticals, Inc., priority 1996, dated 2000)
